The target in this experiment is T1, Neuromedin-K receptor (Homo sapiens, UniProt P29371).
T1 sequence (P29371 whole entry): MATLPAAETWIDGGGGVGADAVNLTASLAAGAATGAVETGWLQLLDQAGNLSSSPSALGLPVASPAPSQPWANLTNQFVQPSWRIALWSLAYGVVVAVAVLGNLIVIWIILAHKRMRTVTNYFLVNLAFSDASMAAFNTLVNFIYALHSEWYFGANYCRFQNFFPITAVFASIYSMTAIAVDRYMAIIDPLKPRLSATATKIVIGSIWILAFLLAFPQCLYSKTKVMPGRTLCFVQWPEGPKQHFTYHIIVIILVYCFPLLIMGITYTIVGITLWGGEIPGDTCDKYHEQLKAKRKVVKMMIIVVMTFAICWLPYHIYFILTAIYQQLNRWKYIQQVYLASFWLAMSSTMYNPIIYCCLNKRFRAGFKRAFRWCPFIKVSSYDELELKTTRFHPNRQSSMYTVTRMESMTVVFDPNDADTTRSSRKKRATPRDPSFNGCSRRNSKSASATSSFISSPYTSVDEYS

On to `CC(C)Oc1cccc(CC(=O)N2CCC[C@](CC[N+]34CCC(c5ccccc5)(CC3)CC4)(c3ccc(Cl)c(Cl)c3)C2)c1`, for which affinity was put at a Ki of 1.08 µM.

Turning to `CC(=O)NC1(c2ccccc2)CCN(CCC(CN(C)C(=O)c2ccccc2)c2ccc(Cl)c(Cl)c2)CC1` (configuration not stated) [SR 48968], the Ki (usually a measure of affinity in units of concentration, obtained from inhibition or displacement) stood at 0.368 µM.

The values above are taken from BindingDB's records for PubMed 7616392 (Sanofi Recherche, 1995).
